Results on 78 compounds are retold here after the METLIN SMRT retention time set (Domingo-Almenara et al. 2019).

The data set can be described thus: gradient 5% acetonitrile 3 min, to 50% in 2 min, to 85% in 15 min, held 3 min, 100 µL/min. As to conditions: column: Zorbax Extend-C18 2.1 x 50 mm; eluents: water / acetonitrile, 0.1% formic acid. Summed up:
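The mobile phases were water and acetonitrile, each with 0.1% formic acid, pumped at 100 μL/min through a Zorbax Extend-C18 column (2.1 × 50 mm, 1.8 μm). Pure standards were injected as mixtures of ~100 molecules and detected by a quadrupole time-of-flight mass spectrometer in positive and negative ionization mode. Retention time came from computationally picked adduct peaks, each inspected by hand.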
On to `CCOc1ccccc1NC(=O)N1CCCC1c1nc(-c2cccc(OC)c2)no1` (stereo not drawn), for which the RP-LC retention time amounted to 1100 s. To `Cc1ccc2c(c1)C1(CCN(CCc3nc(-c4ccccc4)oc3C)CC1)OC(=O)N2` belongs 747 s; to `O=C(C1CCN(c2cncnc2N2CCCCC2)CC1)N1CCN(C2CCCCC2)CC1`, 557 s; to `COC(=O)c1cnc2nc(-c3ccccc3)nn2c1C`, 832 s. `Cc1cccc(C2(O)C(=O)N(CC(=O)N(C)c3ccccc3)c3ccccc32)c1` (stereo not drawn) gave an RP-LC retention time of 614 s. As for `Cc1oc(-c2[nH]ncc2C(=O)N2CCOCC2)cc1S(=O)(=O)Nc1ccccc1F`, the figure is 662 s; as for `CC(C)n1c(=O)oc2cc(-c3noc(-c4cccc(F)c4)n3)ccc21`, 1200 s; as for `Fc1ccc(-c2nc(-c3cccc(-c4ccn[nH]4)c3)no2)cc1`, 1000 s. As for `COc1ccc(NS(=O)(=O)c2cc3c4c(c2)CCC(=O)N4CCC3)cc1OC`, the figure is 730 s; as for `O=C(Cc1c(F)cccc1Cl)N1CC(c2nc(-c3ccccc3)no2)C1`, 900 s; as for `Cc1ccc(Cl)cc1NC(=O)N1CCc2nc(-c3ccccc3)ncc2C1`, 783 s. As for `CCOC(=O)N1CCN(C(=O)CN2CCC(COCc3ccccc3)CC2)CC1`, the figure is 571 s; as for `O=C(NCCN1CCOCC1)c1ccc(Nc2c(-c3ccc(Cl)cc3)nc3cnccn23)cc1`, 620 s; as for `CCC1CN2C=NC(N3CCN(C(=O)Nc4cccc(F)c4C)CC3)=CC2=N1` (stereo not drawn), 671 s. `Cc1ccc2nc(CN3CCN(C(=O)Nc4ccccc4C)CC3)oc2c1` came in with an RP-LC retention time of 679 s. Consider `CN(C)CCNC(=O)C1CCN(c2nc3ccc(-c4ccccc4)nc3s2)CC1`, for which the RP-LC retention time was 667 s. As for `Cc1nc2cc(-c3noc(-c4ccc(C(F)(F)F)cc4)n3)ccc2o1`, the figure is 1210 s; as for `Cc1ccc(NS(=O)(=O)c2cc3c(=O)n(C)ncn3c2)cc1F`, 841 s; as for `COc1ccc(-c2ncc3c(n2)CCN(S(=O)(=O)Cc2ccccc2)C3)cc1`, 976 s. As for `O=C(CN1CCN(Cc2ccc(F)cc2)C1=O)NCc1ccc(OC(F)(F)F)cc1`, the figure is 901 s.

On to `Cc1ccc(-c2nc(-c3ccc(S(=O)(=O)N4CCOCC4)cc3)no2)cc1F`, for which the RP-LC retention time was 1190 s. To `COCCn1c(=O)c2cc(C(=O)N3CCCC3)nn2c2ccccc21` belongs 760 s; to `COc1ccc2[nH]cc(CCNC(=O)c3c(-c4cccnc4)noc3C)c2c1`, 667 s; to `O=C(NCC1CCCO1)c1nnn(-c2ccc(F)cc2)c1-c1ccncc1` (stereo not drawn), 679 s. As for `O=C(Nc1ccc(F)cc1)c1c(O)c2cccnc2n(-c2ccc(F)cc2)c1=O`, the figure is 1200 s; as for `O=C(c1cccc(Nc2c(-c3ccccc3)nc3cnccn23)c1)N1CCOCC1`, 652 s; as for `CCOCCCNC(=O)C1CCN(S(=O)(=O)c2ccc3c(c2)CCCC(=O)N3)CC1`, 656 s. Take `Cc1ccc(S(=O)(=O)N2CCC(c3nc(C(=O)N4CCCC4)c(C)o3)CC2)cc1`: the RP-LC retention time was 733 s. To `Cc1ccsc1-c1nnc(CC(=O)N2CCN(Cc3ccc4c(c3)OCO4)CC2)o1` belongs 640 s. `Cc1sc2ccn(CC(C)C)c(=O)c2c1C(=O)NC1CCN(Cc2ccccc2)CC1` showed an RP-LC retention time of 658 s. As for `O=C(NC1CC1)C1(c2ccc(F)cc2)CC1`, the figure is 779 s.

In turn, `CN(C)CC(=O)N1CCc2[nH]nc(-c3ccc(F)cc3)c2C1` showed an RP-LC retention time of 588 s. The compound `CCOc1ccc(Cc2nc(-c3cccc(-c4ccnn4C)c3)no2)cc1OCC` yielded an RP-LC retention time of 1090 s. To `CC(=O)N1CCC(C(=O)N2CCCn3cc(-c4ccccc4)nc32)CC1` belongs 602 s; to `CN1C(=O)c2cc(C(=O)NCc3ccc(F)cc3)nn2CC1(C)C(=O)NC1CCCC1` (stereo not drawn), 747 s; to `COc1ccc(CC(=O)N2CCC[C@@H]2C(=O)NCc2csc(-c3ccccc3)n2)c(Cl)c1`, 880 s. As for `CC(C)NC(=O)N1CCCC1c1nc(-c2cccc(C(F)(F)F)c2)no1` (stereo not drawn), the figure is 902 s; as for `CCc1noc(NC(C)=O)c1-c1ccc(C)c(S(=O)(=O)NCCC(C)C)c1`, 856 s; as for `Cc1c(C(=O)Nc2nccs2)nnn1-c1ccc2noc(-c3ccc(Cl)cc3)c2c1`, 1020 s.

Regarding `CCn1cnc2ccc(-c3noc(-c4cccc(F)c4)n3)cc21`, the RP-LC retention time was determined as 769 s. As for `O=C(c1ccc[nH]1)N1CCC2(CC1)NC(=O)N(Cc1ccc(Cl)cc1)C2=O`, the figure is 761 s; as for `CCc1nc2ccc(-c3noc(-c4ccc(NC(C)=O)cc4)n3)cc2n1CC`, 630 s. The compound `CNC(=O)[C@@H]1CN(C(=O)c2cncc(Br)c2)C[C@H]1COC` had an RP-LC retention time of 576 s. To `O=C(Nc1ccc2c(c1)OCCO2)NC1CCN(c2ccc(F)cc2)C1=O` (stereo not drawn) belongs 762 s; to `CCS(=O)(=O)N1CC(=O)N(c2cc(Cl)ccc2C)C(C)(C(=O)NC2CCCCC2)C1` (stereo not drawn), 955 s.

`CSc1ccc(NC(=O)N2CCc3nc[nH]c3C2)cc1` came in with an RP-LC retention time of 590 s. As for `Cc1ccc(-c2coc(-c3ccc(NC(=O)c4ccc(Br)o4)cc3)n2)cc1`, the figure is 1230 s; as for `CCCCOc1ccc(-c2nc3ccc(Br)cc3c(C(=O)O)c2C)cc1`, 963 s; as for `CCOC(=O)c1ccccc1NC(=O)C1CCCN(c2cc(-n3cccn3)ncn2)C1` (stereo not drawn), 1100 s. To `O=C(O)Cc1sc(Nc2cccc3ccccc23)nc1-c1ccc(F)cc1` belongs 918 s; to `CCn1c(C(=O)N2CCOCC2)cc2c(-c3cccs3)nn(-c3ccccc3)c21`, 944 s; to `CC1CN(C(=O)CSc2nc(-c3ccco3)cc(C(F)(F)F)n2)CC(C)O1` (stereo not drawn), 952 s. To `CN1CCCn2nc(C3CCN(C(=O)Nc4ccc(F)cc4)CC3)cc2C1=O` belongs 669 s; to `Cc1nc(-c2csc(S(=O)(=O)N3CCC(C(=O)NCCC4=CCCCC4)CC3)c2)no1`, 971 s.

`COc1ccc(-c2nnc(COc3ccc(NC(=O)c4cnccn4)cc3)o2)cc1` came in with an RP-LC retention time of 800 s.

With `O=C(NCCOc1ccc(-c2ccccn2)nn1)c1ccco1`, the RP-LC retention time is 555 s. On to `CC(C)CCn1c(CCCC(=O)N2CCC(C(N)=O)CC2)nc2cccnc21`, for which the RP-LC retention time came out at 598 s.

On to `COc1cc(CNC(=O)c2ccc3c(c2)NC(=O)C2CCCCN32)cc(OC)c1OC` (stereo not drawn), for which the RP-LC retention time turned out to be 726 s. Take `CN(C)S(=O)(=O)N1CC[C@@H]2C(=O)NCCCCCCN(Cc3ccncc3)[C@@H]2C1`: the RP-LC retention time worked out at 603 s. As for `Cc1sc(-n2c(C)c3c(C)nnc(C)c3c2C)nc1-c1ccccc1`, the figure is 687 s.

With `O=C(NC1CCN(Cc2ccccc2)CC1)C1CCCN(c2ncnc3c2oc2ccccc23)C1` (stereo not drawn), the RP-LC retention time came to 604 s. To `CC1CCCN(CC2CCN(C(=O)Nc3ccc(F)cc3)CC2)C1` (stereo not drawn) belongs 608 s; to `CCN(CC)Cc1ccc2cc(COC(=O)Nc3ccc(C(=O)NO)cc3)ccc2c1`, 654 s. To `CCOC(=O)c1c(NC(=O)CN2CCN(c3ccccn3)CC2)sc(C(N)=O)c1C` belongs 599 s. To `O=C(Cn1cccc(-c2nc(-c3ccccc3)no2)c1=O)Nc1ccccc1Br` belongs 898 s. Turning to `CCn1c(C)c(CCC(=O)NCCOC)c(=O)n2nc(-c3ccccc3)nc12`, the RP-LC retention time was 665 s.

Compound `Cc1oc(-c2ccccc2)nc1Cc1noc(-c2ccccc2F)n1` showed an RP-LC retention time of 675 s.

On to `Cc1cc(N2CCN(S(=O)(=O)c3cc(F)ccc3C)CC2)nc(NC2CCCCC2)n1`, for which the RP-LC retention time came out at 864 s. Regarding `CCNC(=O)NC1CCN(c2nc3ccccc3n(C)c2=O)CC1`, the RP-LC retention time was 676 s. As for `Cn1cnc(S(=O)(=O)N2CC(Oc3ccccc3-c3nc(C4CC4)no3)C2)c1`, the figure is 794 s; as for `O=C(CSc1nnc2c3ccccc3nc(-c3ccco3)n12)NCc1nc2ccccc2[nH]1`, 625 s; as for `Cc1oc(-c2ccc(C(=O)N3CCN(C)CC3)cc2)nc1CS(=O)(=O)c1ccccc1`, 608 s.

`COc1ccc(CCC(=O)N2CCN(S(=O)(=O)c3cc4c5c(c3)CCC(=O)N5CCC4)CC2)cc1` showed an RP-LC retention time of 768 s.

For `O=C1CN(C(=O)c2cnccn2)c2ccccc2N1`, the RP-LC retention time amounted to 569 s. To `CCCS(=O)(=O)c1nc2ccc(NS(=O)(=O)c3ccc(Cl)cc3)cc2s1` belongs 984 s.

`COc1ccc(-c2cc3c4nnc(CCC(=O)N5CCCC5)n4ccn3n2)cc1`: the RP-LC retention time was 686 s. As for `Cc1ccc(CNC(=O)Nc2cc3c(cc2N2CCOCC2)n(C)c(=O)n3C)cc1`, the figure is 750 s. Compound `O=C1CCCN1c1ccc(Cn2nc3c(S(=O)(=O)N4CCCC4)cccn3c2=O)cc1` registered an RP-LC retention time of 673 s.
